Measured values taken from ChEMBL document CHEMBL5360552, “Potential RNA-dependent RNA polymerase (RdRp) inhibitors as prospective drug candidates for SARS-CoV-2” (Eur J Med Chem, 2023).

Experiments:
[1] = Cytotoxicity against african green monkey Vero E6 cells assessed as inhibition of cell growth by CCK-8 assay; assay type: toxicity, cell-based, Vero C1008; conditions: chlorocebus sabaeus
SARS-CoV-2 [2] = test: Antiviral activity against SARS-CoV-2 infected in african green monkey Vero E6 cells assessed as reduction in viral replication; assay type: functional, organism-based; conditions: Severe acute respiratory syndrome coronavirus 2, Vero C1008
[3] = biological target: Replicase polyprotein 1ab (Severe acute respiratory syndrome coronavirus 2) (UniProt P0DTD1); test: Inhibition of SARS-CoV-2 RdRp transfected in HEK293T cells at 10 microM incubated for 24 hrs by Gluc-Activity assay relative to control; assay type: cell-based
[4] = Cytotoxicity against HEK293T cells assessed as cell growth inhibition incubated for 24 hrs by CCK-8 assay; assay type: toxicity, cell-based, HEK-293T; conditions: human
[5] = Therapeutic index, ratio of CC50 for HEK293T cells to EC50 for inhibition of SARS-CoV-2 RdRp; assay type: toxicity; conditions: human, read-out: TI
SARS-CoV-2 [6] = test: Antiviral activity against SARS-CoV-2 infected in human Calu-3 cells assessed as reduction in viral yield incubated for 48 hrs by RT-PCR; assay type: functional, organism-based; conditions: Severe acute respiratory syndrome coronavirus 2, Calu-3, 48 h
[7] = Cytotoxicity against human Calu-3 cells assessed as cell growth inhibition incubated for 4 hrs by XTT assay; assay type: toxicity, cell-based
[8] = Cytotoxicity against african green monkey Vero E6 cells assessed as inhibition of cell growth incubated for 4 days by MTS assay; assay type: toxicity, cell-based, Vero C1008; conditions: chlorocebus sabaeus, time 4 day
SARS-CoV-2 [9] = test: Antiviral activity against SARS-CoV-2 infected in african green monkey Vero E6 cells pretreated for 1 hrs followed by viral infection for 2 days post treatment by qRT-PCR; assay type: functional, organism-based, Severe acute respiratory syndrome coronavirus 2
SARS-CoV-2 [10] = test: Antiviral activity against SARS-CoV-2 infected in human Calu-3 cells pretreated for 1 hrs followed by viral infection for 2 days post treatment by qRT-PCR; assay type: functional, organism-based; conditions: Severe acute respiratory syndrome coronavirus 2, Calu-3
[11] = Cytotoxicity against human Calu-3 cells assessed as inhibition of cell growth incubated for 4 days by MTS assay; assay type: toxicity, cell-based; conditions: time 4 day
SARS-CoV-2 [12] = test: Antiviral activity against SARS-CoV-2 infected in african green monkey Vero E6 cells assessed as reduction in viral yield at 20 uM incubated for 48 hrs post infection by qRT-PCR relative to control; assay type: functional, Severe acute respiratory syndrome coronavirus 2; parameters: scale not given: the % may be the effect or the level left
[13] = Cytotoxicity against human Calu-3 cells assessed as cell growth inhibition by neutral red cytopathic assay; assay type: toxicity, cell-based
SARS-CoV-2 [14] = test: Antiviral activity against SARS-CoV-2 WA1/2020 infected in human Caco-2 cells preincubated for 24 hrs followed by viral infection and measured after 3 day post infection by viral yield reduction assay; assay type: functional; conditions: Severe acute respiratory syndrome coronavirus 2, WA1/2020, Caco-2, 96 h; time 4 day
SARS-CoV-2 [15] = test: Antiviral activity against SARS-CoV-2 WA1/2020 infected in african green monkey Vero 76 cells preincubated for 24 hrs followed by viral infection and measured after 3 day post infection by viral yield reduction assay; assay type: functional; conditions: Severe acute respiratory syndrome coronavirus 2, WA1/2020, Vero 76, 96 h; time 4 day
[16] = Selectivity index, ratio of CC50 for human Caco-2 cells to EC90 for SARS-CoV-2 infected in human Caco-2 cells; assay type: toxicity, cell-based; conditions: read-out: Selectivity Index
[17] = Cytotoxicity against human Caco-2 cells assessed as cell growth inhibition by neutral red cytopathic assay; assay type: toxicity, cell-based
[18] = Selectivity index, ratio of CC50 for african green monkey Vero 76 cells to EC90 for SARS-CoV-2 infected in African Green monkey Vero 76 cells assessed as reduction in cytopathic effect; assay type: toxicity, cell-based; conditions: read-out: Selectivity Index
SARS-CoV-2 [19] = test: Antiviral activity against SARS-CoV-2 WA1/2020 infected in human Calu-3 cells preincubated for 2 hrs followed by viral infection and measured after 48 hrs by microscopy analysis; assay type: functional, organism-based; conditions: Severe acute respiratory syndrome coronavirus 2, WA1/2020, Calu-3
[20] = Selectivity index, ratio of CC50 for african green monkey Vero 76 cells to EC90 for SARS-CoV-2 infected in African Green monkey Vero 76 cells; assay type: toxicity, cell-based; conditions: read-out: Selectivity Index
SARS-CoV-2 [21] = test: Antiviral activity against SARS-CoV-2 WA1/2020 infected in african green monkey Vero E6 cells preincubated for 24 hrs followed by viral infection and measured after 5 day post infection by cytopathic effect assay; assay type: functional; conditions: Severe acute respiratory syndrome coronavirus 2, WA1/2020, Vero C1008, 144 h; time 6 day
[22] = Selectivity index, ratio of CC50 for human Calu-3 cells to EC90 for SARS-CoV-2 infected in human Calu-3 cells; assay type: toxicity, cell-based; conditions: read-out: Selectivity Index
[23] = Cytotoxicity against african green monkey Vero 76 cells assessed as cell growth inhibition by neutral red cytopathic assay; assay type: toxicity, cell-based; conditions: chlorocebus sabaeus
SARS-CoV-2 [24] = test: Antiviral activity against wild type SARS-CoV-2 infected in human Calu-3 cells of organoid assessed as intracellular viral RNA level measured after 48 hrs by qRT-PCR analysis; assay type: functional, organism-based; conditions: Severe acute respiratory syndrome coronavirus 2, Calu-3, 48 h
in vitro = conditions: human, Calu-3 cells
Description: Selectivity index, ratio of CC50 for human Calu-3 cells to EC50 for SARS-CoV-2 infected in human Calu-3

[25] = Selectivity index, ratio of CC50 for african green monkey Vero E6 cells to EC50 for SARS-CoV-2 infected in African Green monkey Vero E6 cells; assay type: toxicity, cell-based, Vero C1008; conditions: read-out: Selectivity Index

**Q.** Which CC50 [1] does the source give for `CCC(CC)COC(=O)[C@H](C)N[P@](=O)(OC[C@H]1O[C@@](C#N)(c2ccc3c(N)ncnn23)[C@H](O)[C@@H]1O)Oc1ccccc1` here?
**A.** Its CC50 is over 100 µM.

**Q.** And the IC50 (SARS-CoV-2 [2])?
**A.** The IC50 was 7.18 µM.

**Q.** Which inhibition [3] does the source give for `CC(C)(C)OC(=O)N1CCN(c2ccc3cccc(OCC(=O)NCc4ccccc4)c3n2)CC1` here?
**A.** The inhibition was 95%.

**Q.** And the CC50 at 24 h [4]?
**A.** Its CC50 at 24 h is 70.8 µM.

**Q.** And the selectivity ratio [5]?
**A.** The selectivity ratio was 65.5.

**Q.** What does the source list for `CC(C)(C)OC(=O)N[C@H]1CCN(c2ccc3cccc(OCC(=O)NCc4ccccc4)c3n2)C1`?
**A.** inhibition [3]: 92.8%; CC50 at 24 h [4]: 72.4 µM; selectivity ratio [5]: 34.8

**Q.** For `COC(=O)N[C@H](C(=O)N1CCC[C@H]1c1ncc(-c2ccc(-c3ccc(-c4cnc([C@@H]5CCCN5C(=O)[C@@H](NC(=O)OC)C(C)C)[nH]4)cc3)cc2)[nH]1)C(C)C`, which EC50 (SARS-CoV-2 [6]) is on record?
**A.** The EC50 was 1.1 µM.

**Q.** And the CC50 at 4 h [7]?
**A.** Its CC50 at 4 h is 38 µM.

**Q.** For `COc1ccc(-c2cc(=O)c3c(O)cc(O)c(-c4cc(-c5cc(=O)c6c(O)cc(O)cc6o5)ccc4OC)c3o2)cc1` [ISOGINKGETIN], which IC50 (SARS-CoV-2 [2]) is on record?
**A.** The IC50 was 22.8 µM.

**Q.** With `O=c1cc(-c2ccccc2)oc2cc(O)c(O)c(O)c12` [BAICALEIN] as the compound, how does the CC50 at 96 h [8] read?
**A.** The CC50 at 96 h was 8.6 µM.

**Q.** What about the EC90 (SARS-CoV-2 [9]; Severe acute respiratory syndrome coronavirus 2, Vero C1008, 48 h, time 2 day) of the same compound?
**A.** The EC90 was 7.6 µM.

**Q.** And the EC50 (SARS-CoV-2 [10])?
**A.** Its EC50 is 1.2 µM.

**Q.** And the CC50 at 96 h [11]?
**A.** Its CC50 at 96 h is 91 µM.

**Q.** What about the Activity (SARS-CoV-2 [12]) of the same compound?
**A.** Its Activity is 99.8%.

**Q.** With `CC(C)(C)OC(=O)N[C@@H]1CCN(c2ccc3cccc(OCC(=O)NCc4ccccc4)c3n2)C1` as the compound, how does the inhibition [3] read?
**A.** The inhibition was 74.9%.

**Q.** What about the CC50 at 24 h [4] of the same compound?
**A.** Its CC50 at 24 h is 79.4 µM.

**Q.** And the selectivity ratio [5]?
**A.** The selectivity ratio was 20.3.

**Q.** Which CC50 [13] does the source give for `Nc1ncnc2c([C@@H]3N[C@H](CO)[C@@H](O)[C@H]3O)c[nH]c12` here?
**A.** Its CC50 is over 50 µM.

**Q.** And the EC90 (SARS-CoV-2 [14])?
**A.** The EC90 was 14.2 µM.

**Q.** And the EC90 (SARS-CoV-2 [15])?
**A.** The EC90 was 10.9 µM.

**Q.** And the selectivity ratio [16]?
**A.** The selectivity ratio was 5.8.

**Q.** What about the CC50 [17] of the same compound?
**A.** Its CC50 is 82.8 µM.

**Q.** What about the selectivity ratio [18] of the same compound?
**A.** The selectivity ratio was 5.8.

**Q.** What about the EC50 (SARS-CoV-2 [19]) of the same compound?
**A.** The EC50 was 14.2 µM.

**Q.** And the selectivity ratio [20]?
**A.** Its selectivity ratio is over 27.

**Q.** And the EC90 (SARS-CoV-2 [21])?
**A.** Its EC90 is 50.3 µM.

**Q.** And the selectivity ratio [22]?
**A.** Its selectivity ratio is over 3.5.

**Q.** What about the CC50 [23] of the same compound?
**A.** Its CC50 is over 296 µM.

**Q.** With `CC(C)C(=O)OC[C@H]1O[C@@H](n2cc/c(=N\O)[nH]c2=O)[C@H](O)[C@@H]1O` [MOLNUPIRAVIR] as the compound, how does the IC50 (SARS-CoV-2 [24]) read?
**A.** The IC50 was 1960 nM.

**Q.** Which EC50 (SARS-CoV-2 [6]) does the source give for `NC(=O)c1ncn([C@@H]2O[C@H](CO)[C@@H](O)[C@H]2O)n1` [RIBAVIRIN] here?
**A.** Its EC50 is 7.1 µM.

**Q.** And the CC50 at 4 h [7]?
**A.** The CC50 at 4 h was 160 µM.

**Q.** And the selectivity ratio (in vitro)?
**A.** Its selectivity ratio is 16.

**Q.** With `CCN(CC)CCCC(C)Nc1ccnc2cc(Cl)ccc12` (stereo not given) [CHLOROQUINE] as the compound, how does the IC50 (SARS-CoV-2 [2]) read?
**A.** Its IC50 is 11.6 µM.

**Q.** For `O=C(O)[C@H]1O[C@@H](Oc2cc3oc(-c4ccccc4)cc(=O)c3c(O)c2O)[C@H](O)[C@@H](O)[C@@H]1O` [BAICALIN], which CC50 at 96 h [8] is on record?
**A.** The CC50 at 96 h was over 100 µM.

**Q.** And the EC50 (SARS-CoV-2 [9]; Severe acute respiratory syndrome coronavirus 2, Vero C1008)?
**A.** Its EC50 is 9 µM.

**Q.** And the EC50 (SARS-CoV-2 [10])?
**A.** Its EC50 is 8 µM.

**Q.** And the CC50 at 96 h [11]?
**A.** Its CC50 at 96 h is over 100 µM.

**Q.** And the Activity (SARS-CoV-2 [12])?
**A.** The Activity was 98%.

**Q.** With `Cc1cccc(C)c1OCC(=O)N[C@@H](Cc1ccccc1)[C@@H](O)C[C@H](Cc1ccccc1)NC(=O)[C@H](C(C)C)N1CCCNC1=O` [LOPINAVIR] as the compound, how does the IC50 (SARS-CoV-2 [2]) read?
**A.** Its IC50 is 11.5 µM.

**Q.** Which CC50 [1] does the source give for `NC(=O)c1nc(F)c[nH]c1=O` here?
**A.** The CC50 was over 400 µM.

**Q.** And the selectivity ratio [25]?
**A.** Its selectivity ratio is 6.46.

**Q.** Which results are given for `CC(C)OC(=O)[C@H](C)N[P@](=O)(OC[C@H]1O[C@@H](n2ccc(=O)[nH]c2=O)[C@](C)(F)[C@@H]1O)Oc1ccccc1` [SOFOSBUVIR]?
**A.** EC50 (SARS-CoV-2 [6]): 7.3 µM; CC50 at 4 h [7]: 512 µM
